Source: the supplement of paper PMC10307832

Assays:
Test in all cases: relative viability (nuclei count vs DMSO), 5 days (fraction); higher = more cells survive
Vandetanib + OSI-027 = compound: COc1cc2/c(=N/c3ccc(Br)cc3F)nc[nH]c2cc1OCC1CCN(C)CC1 [Vandetanib] + COc1cccc2cc(-c3nc([C@H]4CC[C@H](C(=O)O)CC4)n4ncnc(N)c34)[nH]c12 [OSI-027] (partner 0.5 µM)
Summary of the method: (§1)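 One day after seeding in 1536-well plates, lung cancer cell lines were dosed by pin tool. Dosing was either single-drug or a fixed anchor-drug dose plus five library-drug doses (not always all listed) in √10 steps. After 5 days, nuclei were stained in one fix-and-stain step and counted on 4× images, and relative viability is the nuclei count of treated wells over that of vehicle wells, given as the median of duplicate plates.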

NVP-TAE684 + Olaparib = compound: COc1cc(N2CCC(N3CCN(C)CC3)CC2)ccc1Nc1ncc(Cl)c(Nc2ccccc2S(=O)(=O)C(C)C)n1 [NVP-TAE684] + O=C(c1cc(Cc2n[nH]c(=O)c3ccccc23)ccc1F)N1CCN(C(=O)C2CC2)CC1 [Olaparib] (partner 8 µM)
Summary of the method: as §1

CUDC-101 + Palbociclib = compound: C#Cc1cccc(Nc2ncnc3cc(OC)c(OCCCCCCC(=O)NO)cc23)c1 [CUDC-101] + CC(=O)c1c(C)c2cnc(Nc3ccc(N4CCNCC4)cn3)nc2n(C2CCCC2)c1=O [Palbociclib] (partner 0.5 µM)
Summary of the method: as §1

CUDC-101 + Vorinostat = compound: C#Cc1cccc(Nc2ncnc3cc(OC)c(OCCCCCCC(=O)NO)cc23)c1 [CUDC-101] + O=C(CCCCCCC(=O)Nc1ccccc1)NO [Vorinostat] (partner 1 µM)
Summary of the method: as §1

Cell Line	relative viability (Vandetanib + OSI-027; first compound 0.02 µM)	relative viability (Vandetanib + OSI-027; first compound 0.06325 µM)	relative viability (Vandetanib + OSI-027; first compound 0.2 µM)	relative viability (Vandetanib + OSI-027; first compound 0.6325 µM)	relative viability (Vandetanib + OSI-027; first compound 2 µM)	relative viability (NVP-TAE684 + Olaparib; first compound 0.2 µM)	relative viability (NVP-TAE684 + Olaparib; first compound 0.6325 µM)	relative viability (NVP-TAE684 + Olaparib; first compound 2 µM)	relative viability (CUDC-101 + Palbociclib; first compound 0.01 µM)	relative viability (CUDC-101 + Palbociclib; first compound 0.03162 µM)	relative viability (CUDC-101 + Palbociclib; first compound 0.1 µM)	relative viability (CUDC-101 + Palbociclib; first compound 0.3162 µM)	relative viability (CUDC-101 + Palbociclib; first compound 1 µM)	relative viability (CUDC-101 + Vorinostat; first compound 0.01 µM)	relative viability (CUDC-101 + Vorinostat; first compound 0.03162 µM)	relative viability (CUDC-101 + Vorinostat; first compound 0.1 µM)	relative viability (CUDC-101 + Vorinostat; first compound 0.3162 µM)	relative viability (CUDC-101 + Vorinostat; first compound 1 µM)
NCI-H2085	0.797	0.795	0.735	0.673	0.559	0.819	0.754	0.714	0.438	0.468	0.47	0.463	0.466	0.772	0.771	0.814	0.801	0.628
LCLC-97TM1	0.669	0.324	0.514	0.394	0.481	0.443	0.326	0.154	0.203	0.228	0.252	0.173	0.164	0.815	0.778	0.663	0.56	0.195
ABC-1	0.43	0.464	0.488	0.479	0.254	0.636	0.692	0.37	0.647	0.682	0.864	0.587	0.454	1.05	0.988	1.17	0.815	0.318
NCI-H2228	0.651	0.42	0.744	0.422	0.631	0.36	0.384	0.109	0.891	1.09	0.874	0.805	0.664	0.611	0.575	0.585	0.783	0.526
PC-14	0.931	0.576	0.458	0.145	0.109	0.237	0.255	0.0711	0.629	0.425	0.338	0.0958	0.0539	0.806	0.572	0.137	0.148	0.0543
H3255	0.655	0.459	0.455	0.417	0.227	0.539	0.532	0.407	0.335	0.351	0.324	0.292	0.238	0.824	0.786		1.07	0.368
NCI-H441	0.551	0.619	0.713	0.643	0.566	0.617	0.659	0.309	0.222	0.255	0.183	0.231	0.221	0.968	0.915	0.784	0.937	0.618
LK-2	0.243	0.213	0.203	0.197	0.227	0.698	0.698	0.451	0.824	0.662	0.574	0.593	0.194	0.37	0.407	0.228	0.23	0.158
SW 1573	0.508	0.57	0.653	0.634	0.534	0.519	0.401	0.148	0.376	0.346	0.441	0.501	0.315	0.979	0.689	0.675	0.773	0.468
LU99A	0.267	0.314	0.267	0.264	0.317	0.283	0.266	0.24	0.332	0.391	0.374	0.425	0.212	0.529	0.477	0.452	0.389	0.219
NCI-H322M	0.573	0.551	0.608	0.49	0.422	0.715	0.723	0.558	0.515	0.47	0.465	0.497	0.436	0.858	0.81	0.799	0.596	0.494
COR-L23	0.731	0.671	0.736	0.684	0.789	0.273	0.282	0.281	0.275	0.332	0.283	0.253	0.128	0.35	0.581	0.394	0.22	0.0997
NCI-H1793	0.302	0.25	0.238	0.292	0.274	1.01	0.841	0.508	0.275	0.272	0.36	0.253	0.247	0.858	0.774	0.558	0.675	0.331
HARA	0.542	0.299	0.466	0.525	0.483	0.76	0.891	0.299	0.278	0.204	0.246	0.224	0.172	0.505	0.678	0.577	0.478	0.22
NCI-H1648	0.253	0.276	0.28	0.258	0.252	0.45	0.863	0.287	0.243	0.273	0.256	0.27	0.211	0.631	0.378	0.333	0.225	0.22
LXF-289	0.774	0.708	0.877	0.771	0.741	0.931	1.08	0.487	0.6	0.604	0.571	0.589	0.515	0.755	0.757	0.71	0.594	0.447
201T	0.69	0.664	0.719		0.672	0.886	0.823	0.815	0.332	0.38	0.347	0.344	0.353	1.02	0.954	0.937	0.982	0.842
LCLC-103H	0.428	0.44	0.438	0.423	0.448	0.794	0.783	0.726	0.47	0.51	0.491	0.45	0.436	0.759	0.81	0.7	0.692	0.61
NCI-H520	0.219	0.226	0.311	0.268	0.271	0.327	0.332	0.198	0.227	0.199	0.277	0.32	0.225	0.769	0.686	0.488	0.397	0.32
RERF-LC-KJ	0.627	0.537	0.545	0.471	0.412	1.1	0.758	0.547	1.15	1.16	1.01	0.844	0.813	0.732	0.783	0.612	0.659	0.439
NCI-H1975	0.719	0.728	0.77	0.683	0.612	0.862	0.748	0.288	0.535	0.623	0.601	0.673	0.536	0.687	0.712	0.781	0.75	0.642
PC-3 [JPC-3]	0.757	0.768	0.795	0.462	0.45	1.32	1.02		0.465	0.574	0.493	0.527	0.481	0.753	0.691	0.387	0.383	0.335
EPLC-272H	0.319		0.305	0.286	0.265	0.321	0.577	0.162	0.318	0.314	0.279	0.282	0.261	0.345	0.38	0.464	0.229	0.118
